Laboratory results reported in patent US20240368135A1 (VERTEX PHARMACEUTICALS INCORPORATED, priority 2021, published 2024).
Structures can show the parent of a compound that is named as a salt. Where two headings read alike, the source gives them in different places.

Biological target: human NaV 1.8 (Homo sapiens, UniProt Q9Y5Y9)
Assay: E-VIPR assay detecting and measuring NaV inhibition properties
Type: cell-based
Conditions: HEK cells expressing truncated human NaV 1.8
Procedure, shortened: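 Membrane potential was followed by coumarin/oxonol FRET during electrical field stimulation of matrigel-seeded HEK cells carrying truncated human NaV1.8 plus KIR2.1. Dosing used 11 points, 3-fold steps, top 300 nM final, 0.625% DMSO, with or without 25% human serum.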

[1] = no human serum, read-out: IC50 in the E-VIPR Assay

human NaV 1.8, sequence (Q9Y5Y9 126-399 limits assumed): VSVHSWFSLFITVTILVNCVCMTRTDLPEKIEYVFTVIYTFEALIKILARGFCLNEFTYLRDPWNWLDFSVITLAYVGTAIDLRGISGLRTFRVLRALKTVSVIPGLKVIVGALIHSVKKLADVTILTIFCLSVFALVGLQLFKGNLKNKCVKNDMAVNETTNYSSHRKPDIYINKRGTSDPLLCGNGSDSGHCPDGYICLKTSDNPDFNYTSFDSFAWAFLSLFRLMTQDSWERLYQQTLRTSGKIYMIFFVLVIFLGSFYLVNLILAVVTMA
human NaV 1.8, sequence (Q9Y5Y9 660-890 limits assumed): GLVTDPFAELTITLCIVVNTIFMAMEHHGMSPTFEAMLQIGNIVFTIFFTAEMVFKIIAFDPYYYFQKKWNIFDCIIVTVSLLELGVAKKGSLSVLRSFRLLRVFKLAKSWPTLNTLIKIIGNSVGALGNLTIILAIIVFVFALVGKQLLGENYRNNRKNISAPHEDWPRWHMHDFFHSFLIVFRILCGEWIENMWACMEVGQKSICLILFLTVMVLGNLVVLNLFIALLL
human NaV 1.8, sequence (Q9Y5Y9 1148-1722 limits assumed): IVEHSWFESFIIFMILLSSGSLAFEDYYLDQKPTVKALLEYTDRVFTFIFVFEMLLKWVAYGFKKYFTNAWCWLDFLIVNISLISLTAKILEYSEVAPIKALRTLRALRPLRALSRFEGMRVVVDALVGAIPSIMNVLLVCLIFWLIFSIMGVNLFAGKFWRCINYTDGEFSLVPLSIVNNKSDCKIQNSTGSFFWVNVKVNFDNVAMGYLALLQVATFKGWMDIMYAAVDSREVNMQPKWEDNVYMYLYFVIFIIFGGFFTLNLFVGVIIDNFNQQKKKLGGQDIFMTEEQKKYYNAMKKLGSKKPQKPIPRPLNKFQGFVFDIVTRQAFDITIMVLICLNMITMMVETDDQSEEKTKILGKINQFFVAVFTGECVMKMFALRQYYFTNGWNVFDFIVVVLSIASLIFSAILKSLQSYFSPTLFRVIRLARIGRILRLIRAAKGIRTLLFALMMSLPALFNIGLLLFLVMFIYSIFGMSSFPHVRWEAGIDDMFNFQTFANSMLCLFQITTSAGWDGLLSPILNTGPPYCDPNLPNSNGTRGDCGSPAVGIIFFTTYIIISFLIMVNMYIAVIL

| IC50 [1] [nM] | IC50 (in the presence of human serum (compound numbers followed by *), read-out: IC50 in the E-VIPR Assay, performed in the presence of human serum) [nM] | Structure (SMILES) |
| --- | --- | --- |
| < 10 |  | COc1c([C@H]2[C@H](C(=O)Nc3csnc3C)O[C@@](C)(C(F)(F)F)[C@H]2C)ccc(F)c1F [Compound 327, (2R,3S,4S,5R)-3-(3,4-difluoro-2-methoxyphenyl)-4,5-dimethyl-N-(3-methylisothiazol-4-yl)-5-(trifluoromethyl)-tetrahydrofuran-2-carboxamide] |
| 100 to 1000 |  | COc1c([C@H]2[C@H](C(=O)Nc3ccc(-c4nc(C)no4)nc3)O[C@@](C)(C(F)(F)F)[C@H]2C)ccc(F)c1F [Compound 393, (2R,3S,4S,5R)-3-(3,4-difluoro-2-methoxyphenyl)-4,5-dimethyl-N-(6-(3-methyl-1,2,4-oxadiazol-5-yl)pyridin-3-yl)-5-(trifluoromethyl)-tetrahydrofuran-2-carboxamide] |
| < 10 |  | C[C@H]1[C@@H](c2ccc(F)c(F)c2OC(F)F)[C@H](C(=O)Nc2ccnc(S(C)(=O)=O)c2)O[C@@]1(C)C(F)(F)F (single isomer, unassigned) [Compound 85] |
|  | ≥ 1000 | C[C@@H]1[C@H](c2ccc(F)c(F)c2OC(F)F)[C@@H](C(=O)Nc2cc(S(C)(=O)=O)c[n+]([O-])c2)O[C@]1(C)C(F)(F)F (single isomer, unassigned) [Compound 87] |
| 10 to 100 |  | Cc1nn(CCO)cc1NC(=O)[C@@H]1O[C@@](C)(C(F)(F)F)[C@@H](C)[C@H]1c1ccc(F)c(F)c1OC(F)F (single isomer, unassigned) [Compound 76] |
| 10 to 100 |  | COc1c([C@H]2[C@H](C(=O)Nc3cncc(S(=O)(=O)N(C)C)c3)O[C@@](C)(C(F)(F)F)[C@H]2C)ccc(F)c1F (stereo in doubt) [Compound 453, rel-(2R,3S,4S,5R)-3-(3,4-difluoro-2-methoxyphenyl)-N-(5-(N,N-dimethylsulfamoyl)pyridin-3-yl)-4,5-dimethyl-5-(trifluoromethyl)tetrahydrofuran-2-carboxamide] |
| ≥ 1000 |  | COc1nc(C(F)F)ccc1[C@@H]1[C@@H](C(=O)Nc2ccc(C(N)=O)nc2)O[C@](C)(C(F)(F)F)[C@@H]1C (stereo in doubt) [Compound 735, rel-5-((2S,3R,4R,5S)-3-(6-(difluoromethyl)-2-methoxypyridin-3-yl)-4,5-dimethyl-5-(trifluoromethyl)tetrahydrofuran-2-carboxamido)picolinamide] |
| < 10 |  | COc1c([C@H]2[C@H](C(=O)Nc3ccnc(N4CCN[C@@H](C)C4=O)c3)O[C@@](C)(C(F)(F)F)[C@H]2C)ccc(F)c1F [Compound 485, (2R,3S,4S,5R)-3-(3,4-difluoro-2-methoxyphenyl)-4,5-dimethyl-N-(2-((S)-3-methyl-2-oxopiperazin-1-yl)pyridin-4-yl)-5-(trifluoromethyl)tetrahydrofuran-2-carboxamide] |
| ≥ 1000 |  | COc1c([C@H]2[C@H](C(=O)NCC#N)O[C@@](C)(C(F)(F)F)[C@H]2C)ccc(F)c1F [Compound 277, (2R,3S,4S,5R)-N-(cyanomethyl)-3-(3,4-difluoro-2-methoxyphenyl)-4,5-dimethyl-5-(trifluoromethyl)tetrahydrofuran-2-carboxamide] |
| < 10 |  | COc1c([C@H]2[C@H](C(=O)Nc3ccnc(N4C(=O)CN(C)C[C@@H]4CO)c3)O[C@@](C)(C(F)(F)F)[C@H]2C)ccc(F)c1F [Compound 511, (2R,3S,4S,5R)-3-(3,4-difluoro-2-methoxyphenyl)-N-(2-((R)-2-(hydroxymethyl)-4-methyl-6-oxopiperazin-1-yl)pyridin-4-yl)-4,5-dimethyl-5-(trifluoromethyl)tetrahydrofuran-2-carboxamide] |
| < 10 |  | Cc1nn(C(F)F)cc1NC(=O)[C@@H]1O[C@@](C)(C(F)(F)F)[C@@H](C)[C@H]1c1ccc(F)c(F)c1OCC1COC1 [Compound 579, (2R,3S,4S,5R)-3-(3,4-difluoro-2-(oxetan-3-ylmethoxy)phenyl)-N-(1-(difluoromethyl)-3-methyl-1H-pyrazol-4-yl)-4,5-dimethyl-5-(trifluoromethyl)tetrahydrofuran-2-carboxamide] |
| ≥ 1000 |  | C[C@@H]1[C@H](c2ccc(F)c(F)c2OC(F)F)[C@@H](C(=O)Nc2ccc(CCO)nc2)O[C@]1(C)C(F)(F)F (single isomer, unassigned) [Compound 459] |
| 10 to 100 |  | COc1c([C@H]2[C@H](C(=O)Nc3ccc(C#N)cn3)O[C@@](C)(C(F)(F)F)[C@H]2C)ccc(F)c1F [Compound 187, (2R,2S,4S,5R)-N-(5-cyanopyridin-2-yl)-3-(3,4-difluoro-2-methoxyphenyl)-4,5-dimethyl-5-(trifluoromethyl)tetrahydrofuran-2-carboxamide] |
| 10 to 100 |  | COc1c([C@H]2[C@H](C(=O)Nc3cnc(C(F)CO)nc3)O[C@@](C)(C(F)(F)F)[C@H]2C)ccc(F)c1F (stereo partly drawn) [Compound 446, (2R,3S,4S,5R)-3-(3,4-difluoro-2-methoxy-phenyl)-N-[2-(1-fluoro-2-hydroxy-ethyl)pyrimidin-5-yl]-4,5-dimethyl-5-(trifluoromethyl)tetrahydrofuran-2-carboxamide] |
| 10 to 100 |  | COc1c([C@H]2[C@H](C(=O)Nc3cc(O[C@@H]4COC[C@@H]4O)ncn3)O[C@@](C)(C(F)(F)F)[C@H]2C)ccc(F)c1F (relative stereo) [Compound 238, (2R*,3S*,4S*,5R*)-3-(3,4-difluoro-2-methoxyphenyl)-N-(6-((cis-4-hydroxytetrahydrofuran-3-yl)oxy)pyrimidin-4-yl)-4,5-dimethyl-5-(trifluoromethyl)tetrahydrofuran-2-carboxamide] |
| 10 to 100 |  | COc1c([C@H]2[C@H](C(=O)Nc3ccnc(N(C)CCO)c3)O[C@@](C)(C(F)(F)F)[C@H]2C)ccc(F)c1F [Compound 521, (2R,3S,4S,5R)-3-(3,4-difluoro-2-methoxy-phenyl)-N-[2-[2-hydroxyethyl(methyl)amino]-4-pyridyl]-4,5-dimethyl-5-(trifluoromethyl)tetrahydrofuran-2-carboxamide] |
| < 10 |  | COCCOc1c([C@H]2[C@H](C(=O)Nc3ccc(=O)n(C)c3)O[C@@](C)(C(F)(F)F)[C@H]2C)ccc(F)c1F [Compound 584, (2R,3S,4S,5R)-3-(3,4-difluoro-2-(2-methoxyethoxy)phenyl)-4,5-dimethyl-N-(1-methyl-6-oxo-1,6-dihydropyridin-3-yl)-5-(trifluoromethyl)tetrahydrofuran-2-carboxamide] |
| < 10 |  | CCOc1c([C@H]2[C@H](C(=O)Nc3ccnc(S(C)(=N)=O)c3)O[C@@](C)(C(F)(F)F)[C@H]2C)ccc(F)c1F (single isomer, unassigned) [Compound 111] |
| 10 to 100 |  | Cc1nocc1NC(=O)[C@@H]1O[C@@](C)(C(F)(F)F)[C@@H](C)[C@H]1c1ccc(F)c(F)c1OCCN1CC(C)(F)C1 [Compound 630, (2R,3S,4S,5R)-3-(3,4-difluoro-2-(2-(3-fluoro-3-methylazetidin-1-yl)ethoxy)phenyl)-4,5-dimethyl-N-(3-methylisoxazol-4-yl)-5-(trifluoromethyl)tetrahydrofuran-2-carboxamide] |
| 100 to 1000 |  | C[C@H]1[C@@H](c2ccc(F)c(F)c2OCC2COC2)[C@H](C(=O)Nc2ccc(C(C)(C)O)nc2)O[C@@]1(C)C(F)(F)F [Compound 581, (2R,3S,4S,5R)-3-(3,4-difluoro-2-(oxetan-3-ylmethoxy)phenyl)-N-(6-(2-hydroxypropan-2-yl)pyridin-3-yl)-4,5-dimethyl-5-(trifluoromethyl)tetrahydrofuran-2-carboxamide (TFA salt)] |
